How the values were obtained:
Format in all cases: biochemical
Settings in all cases: procedures of Example 14 (TR-FRET)
[1] = molecular target: JNK3 (Homo sapiens (Human), UniProt P53779); assay: JNK3 TR-FRET kinase assay (Example 14)
Procedure: (§1) 14.3. Active JNK 1, 2 and 3 TR-FRET Assay
(§2) (1) Assay buffer #1 with 0.0025% Tween and 1 mM DTT was prepared using JNK buffer stock solution.
(§3) (2) Assay buffer #2 with 0.025% BSA was prepared using the assay buffer #1.
(§4) (3) Test compound solution preparation: 5× compound solution was prepared using assay buffer #1 with 5% DMSO. The compound solution (10 μl/well) was added to a 384-well plate (Corning, Cat No. 3654).
(§5) (4) aJNK1, 2 or 3 preparation: aJNK stock (100 μg/ml) at −80° C. was thawed on ice and an aJNK (1.6 ng/ml) solution was prepared using assay buffer #2. The aJNK solution (20 μl/well) was added to the plate and the plate was shaken. The enzyme was incubated with the compound at RT for 10 min. (5) ATP/substrate solution preparation: ATP and substrate stocks were thawed on ice. 2.5×ATP/substrate (e.g., 25 μM or 2.5 mM ATP/50 nM EPIW-1) was prepared using assay buffer #1. The ATP/substrate (20 μl/well) was added to the plate and the plate was shaken. The plate was incubated at RT for 15 min. Note: In an exemplary assay, the final ATP concentration was about 1 mM. (6) EDTA preparation: 30 mM EDTA was prepared using 0.5M EDTA stock and assay buffer #1. The EDTA (10 μl/well) was added to the plate to quench the enzyme reaction and the plate was shaken well. (7) Detection reagent preparation: Eu-63 and SA-XL stocks were thawed on ice. 4× Eu-63/SA-XL (2 nM Eu-63/9.4 nM SA-XL) was prepared using JNK detection buffer. The Eu-63/SA-XL solution (20 μl/well) was added to the plate and the plate was shaken. The plate was incubated at RT for 1 hr before reading the plate on LJL using ratiometric method named HTRF.
(§6) 14.4. Coupled JNK 1, 2 and 3 TR-FRET Assay
(§7) (1) Assay buffer with 0.0025% Tween, 0.01% BSA, and 1 mM DTT was prepared using JNK buffer stock solution.
(§8) (2) Test compound solution preparation: 5× compound solution, including EDTA background, was prepared using assay buffer with 5% DMSO. The compound solution (10 μl/well) was added to a 384-well plate (Corning, Cat No. 3654).
(§9) (3) uJNK1,2, or 3 activation reaction preparation: uJNK activation solution was prepared using assay buffer (1.6 ng/ml MKK4, 1.6 ng/ml MKK7, 16 ng/ml uJNK, and 20 uM ATP final). The uJNK activation solution (35 μl/well) was added to the plate, the plate was shaken, and the reaction mixture was incubated with compound at 30° C. for 60 min. (4) c-Jun substrate solution preparation: 50 nM EPIW-1, c-Jun peptide, was prepared using assay buffer (15 nM final). The EPIW-1 solution (15 μl/well) was added to the plate, the plate was shaken and incubated at 30° C. for 60 min. (5) EDTA preparation: 30 mM EDTA was prepared using 0.5M EDTA stock and assay buffer. The EDTA (10 μl/well) was added to the plate to quench the enzyme reaction and the plate was shaken well. (6) Detection reagent preparation: Eu-73 and SA-XL stocks were thawed on ice. 4× Eu-73/SA-XL (2 nM Eu-73/9.4 nM SA-XL) were prepared using JNK detection buffer. The Eu-73/SA-XL solution (20 μl/well) was added to the plate. The plate was shaken and incubated at RT for 1 hr before reading the plate on LJL using ratiometric method named HTRF.

[2] = molecular target: JNK1 (Homo sapiens (Human), UniProt P45983); assay: JNK1 TR-FRET kinase assay (Example 14)
JNK1, sequence (P45983 other isoform, or with tags, fused parts or gaps isoform P45983-2, species assumed): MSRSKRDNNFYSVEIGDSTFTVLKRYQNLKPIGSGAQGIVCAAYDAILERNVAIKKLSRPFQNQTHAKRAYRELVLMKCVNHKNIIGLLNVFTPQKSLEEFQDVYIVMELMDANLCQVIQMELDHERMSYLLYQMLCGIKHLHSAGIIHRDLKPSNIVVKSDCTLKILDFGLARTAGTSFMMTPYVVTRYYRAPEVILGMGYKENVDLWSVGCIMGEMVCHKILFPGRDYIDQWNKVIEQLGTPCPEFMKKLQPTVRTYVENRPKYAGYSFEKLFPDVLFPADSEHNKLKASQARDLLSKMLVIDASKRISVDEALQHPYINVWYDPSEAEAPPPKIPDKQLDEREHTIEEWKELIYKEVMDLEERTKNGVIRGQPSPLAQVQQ
Procedure: as §1, §2, §3, §4, §5, §6, §7, §8, §9

[3] = molecular target: JNK2 (Homo sapiens (Human), UniProt P45984); assay: JNK2 TR-FRET kinase assay (Example 14)
JNK2, sequence (P45984 whole entry, species assumed): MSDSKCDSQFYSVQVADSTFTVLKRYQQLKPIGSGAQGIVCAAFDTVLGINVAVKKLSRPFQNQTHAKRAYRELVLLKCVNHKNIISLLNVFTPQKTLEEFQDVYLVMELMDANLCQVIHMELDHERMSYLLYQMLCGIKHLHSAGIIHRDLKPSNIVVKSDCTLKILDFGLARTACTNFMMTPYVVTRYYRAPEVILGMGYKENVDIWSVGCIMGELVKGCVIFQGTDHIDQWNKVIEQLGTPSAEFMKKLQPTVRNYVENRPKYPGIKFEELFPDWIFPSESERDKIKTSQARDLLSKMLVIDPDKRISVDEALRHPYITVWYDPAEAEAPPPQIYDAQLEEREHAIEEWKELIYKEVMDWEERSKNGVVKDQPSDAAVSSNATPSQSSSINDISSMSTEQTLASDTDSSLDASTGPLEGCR
Procedure: as §1, §2, §3, §4, §5, §6, §7, §8, §9

JNK3, sequence (P53779 whole entry, species assumed): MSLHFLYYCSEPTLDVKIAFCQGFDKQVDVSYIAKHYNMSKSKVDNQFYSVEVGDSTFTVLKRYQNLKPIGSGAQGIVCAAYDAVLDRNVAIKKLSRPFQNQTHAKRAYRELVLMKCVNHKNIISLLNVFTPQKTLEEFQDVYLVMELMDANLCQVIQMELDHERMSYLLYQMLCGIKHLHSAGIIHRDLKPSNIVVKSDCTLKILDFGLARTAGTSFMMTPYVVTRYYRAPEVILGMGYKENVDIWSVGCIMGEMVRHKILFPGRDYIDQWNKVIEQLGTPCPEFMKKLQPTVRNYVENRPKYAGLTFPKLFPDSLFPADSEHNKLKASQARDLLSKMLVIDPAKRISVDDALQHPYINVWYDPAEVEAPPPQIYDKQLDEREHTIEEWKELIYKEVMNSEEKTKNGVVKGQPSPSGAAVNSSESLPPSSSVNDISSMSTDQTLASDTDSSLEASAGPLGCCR

SMILES | IC50 [1] [µM] | IC50 [2] [µM] | IC50 [3] [µM]
COc1ccc(CC(=O)Nc2sccc2-c2nnn(C)n2)cc1 [2-(4-methoxyphenyl)-N-(3-(2-methyl-2H-tetrazol-5-yl)thiophen-2-yl)acetamide] | 0.1 to 10 | 0.1 to 10 | > 10
COc1ccc(CC(=O)Nc2sccc2-c2noc(C)n2)cc1 [2-(4-methoxyphenyl)-N-(3-(5-methyl-1,2,4-oxadiazol-3-yl)thiophen-2-yl)acetamide] | 0.1 to 10 | 0.1 to 10 | 0.1 to 10
COc1ccc(CC(=O)Nc2scc(C)c2-c2nc(C)n[nH]2)cc1 [2-(4-methoxyphenyl)-N-(4-methyl-3-(3-methyl-1H-1,2,4-triazol-5-yl)thiophen-2-yl)acetamide] | 0.1 to 10 | 0.1 to 10 | 0.1 to 10
O=C(Cn1c(=O)ccc2cc(Br)ccc21)Nc1scc(Br)c1-c1nc[nH]n1 [2-(6-bromo-2-oxoquinolin-1(2H)-yl)-N-(4-bromo-3-(1H-1,2,4-triazol-3-yl)thiophen-2-yl)acetamide] | < 0.1 | < 0.1 | < 0.1
O=C(Cn1c(=O)ccc2cc(Br)ccc21)Nc1scc(Cl)c1-c1nc[nH]n1 [2-(6-bromo-2-oxoquinolin-1(2H)-yl)-N-(4-chloro-3-(1H-1,2,4-triazol-3-yl)thiophen-2-yl)acetamide] | < 0.1 | < 0.1 | < 0.1
O=C(CN1C(=O)CCc2ccc(Br)cc21)Nc1scc(Br)c1-c1ncn[nH]1 [2-(7-bromo-2-oxo-3,4-dihydroquinolin-1(2H)-yl)-N-(4-bromo-3-(1H-1,2,4-triazol-5-yl)thiophen-2-yl)acetamide] | 0.1 to 10 | 0.1 to 10 | 0.1 to 10
O=C(Cc1cccc2ncsc12)Nc1scc(Br)c1-c1ncn[nH]1 [2-(benzo[d]thiazol-7-yl)-N-(4-bromo-3-(1H-1,2,4-triazol-5-yl)thiophen-2-yl)acetamide] | < 0.1 | < 0.1 | 0.1 to 10
COc1nc(-c2sccc2NC(=O)Cc2cccc3cnccc23)cs1 [2-(isoquinolin-5-yl)-N-(2-(2-methoxythiazol-4-yl)thiophen-3-yl)acetamide] | 0.1 to 10 | 0.1 to 10 | > 10
Cc1csc(-c2sccc2NC(=O)Cc2cccc3cnccc23)n1 [2-(isoquinolin-5-yl)-N-(2-(4-methylthiazol-2-yl)thiophen-3-yl)acetamide] | 0.1 to 10 | 0.1 to 10 | 0.1 to 10
Cc1cnc(-c2sccc2NC(=O)Cc2cccc3cnccc23)s1 [2-(isoquinolin-5-yl)-N-(2-(5-methylthiazol-2-yl)thiophen-3-yl)acetamide] | 0.1 to 10 | 0.1 to 10 | 0.1 to 10
O=C(Cc1cccc2cnccc12)Nc1ccsc1-c1ncco1 [2-(isoquinolin-5-yl)-N-(2-(oxazol-2-yl)thiophen-3-yl)acetamide] | 0.1 to 10 | 0.1 to 10 | 0.1 to 10
O=C(Cc1cccc2cnccc12)Nc1ccsc1-c1nccs1 [2-(isoquinolin-5-yl)-N-(2-(thiazol-2-yl)thiophen-3-yl)acetamide] | 0.1 to 10 | 0.1 to 10 | 0.1 to 10
O=C(Cc1cccc2cnccc12)Nc1ccsc1-c1cscn1 [2-(isoquinolin-5-yl)-N-(2-(thiazol-4-yl)thiophen-3-yl)acetamide] | 0.1 to 10 | 0.1 to 10 | 0.1 to 10
O=C(Cc1cccc2cnccc12)Nc1scnc1-c1cnccn1 [2-(isoquinolin-5-yl)-N-(4-(pyrazin-2-yl)thiazol-5-yl)acetamide] | 0.1 to 10 | 0.1 to 10 | 0.1 to 10
O=C(Cc1cccc2ccccc12)Nc1ccsc1-c1nnco1 [N-(2-(1,3,4-oxadiazol-2-yl)thiophen-3-yl)-2-(naphthalen-1-yl)acetamide] | 0.1 to 10 | 0.1 to 10 | > 10
Cc1nc(-c2sccc2NC(=O)Cc2cccc3ccccc23)n(C)n1 [N-(2-(1,3-dimethyl-1H-1,2,4-triazol-5-yl)thiophen-3-yl)-2-(naphthalen-1-yl)acetamide] | > 10 | > 10 | > 50
Cn1ncnc1-c1sccc1NC(=O)Cc1cccc2ccccc12 [N-(2-(1-methyl-1H-1,2,4-triazol-5-yl)thiophen-3-yl)-2-(naphthalen-1-yl)acetamide] | > 50 | > 50 | > 50
Cn1ccnc1-c1sccc1NC(=O)Cc1cccc2ccccc12 [N-(2-(1-methyl-1H-imidazol-2-yl)thiophen-3-yl)-2-(naphthalen-1-yl)acetamide] | > 10 | > 10 | > 50
Cn1ccc(-c2sccc2NC(=O)Cc2cccc3ccccc23)n1 [N-(2-(1-methyl-1H-pyrazol-3-yl)thiophen-3-yl)-2-(naphthalen-1-yl)acetamide] | > 10 | > 10 | > 50
COc1ccc(CC(=O)Nc2ccsc2-n2cncn2)cc1 [N-(2-(1H-1,2,4-triazol-1-yl)thiophen-3-yl)-2-(4-methoxyphenyl)acetamide] | > 10 | > 10 | > 50
COc1ccc(CC(=O)Nc2ccsc2-c2ncn[nH]2)cc1 [N-(2-(1H-1,2,4-triazol-5-yl)thiophen-3-yl)-2-(4-methoxyphenyl)acetamide] | 0.1 to 10 | 0.1 to 10 | 0.1 to 10
O=C(Cc1cccc2ccccc12)Nc1ccsc1-c1ncn[nH]1 [N-(2-(1H-1,2,4-triazol-5-yl)thiophen-3-yl)-2-(naphthalen-1-yl)acetamide] | 0.1 to 10 | 0.1 to 10 | 0.1 to 10
O=C(Cc1cccc2ncccc12)Nc1ccsc1-c1nnc[nH]1 [N-(2-(1H-1,2,4-triazol-5-yl)thiophen-3-yl)-2-(quinolin-5-yl)acetamide] | 0.1 to 10 | 0.1 to 10 | 0.1 to 10
O=C(Cc1cccc2ccccc12)Nc1ccsc1-n1ccnc1 [N-(2-(1H-imidazol-1-yl)thiophen-3-yl)2-(naphthalen-1-yl)acetamide] | 0.1 to 10 | > 10 | > 50
O=C(CN1C(=O)CCc2ccccc21)Nc1ccsc1-c1c[nH]cn1 [N-(2-(1H-imidazol-4-yl)thiophen-3-yl)-2-(2-oxo-3,4-dihydroquinolin-1(2H)-yl)acetamide] | 0.1 to 10 | 0.1 to 10 | > 10
COc1ccc(CC(=O)Nc2ccsc2-c2c[nH]cn2)cc1 [N-(2-(1H-imidazol-4-yl)thiophen-3-yl)-2-(4-methoxyphenyl)-acetamide] | > 10 | > 10 | > 50
COc1ccc(CC(=O)Nc2ccsc2-n2cccn2)cc1 [N-(2-(1H-pyrazol-1-yl)thiophen-3-yl)-2-(4-methoxyphenyl)-acetamide] | > 10 | > 10 | > 50
O=C(Cc1cccc2cnccc12)Nc1ccsc1-c1csc(Cl)n1 [N-(2-(2-chlorothiazol-4-yl)thiophen-3-yl)-2-(isoquinolin-5-yl)acetamide] | 0.1 to 10 | 0.1 to 10 | > 10
Cc1nc(-c2sccc2NC(=O)CN2C(=O)CCc3ccccc32)c[nH]1 [N-(2-(2-methyl-1H-imidazol-4-yl)thiophen-3-yl)-2-(2-oxo-3,4-dihydroquinolin-1(2H)-yl)acetamide] | > 10 | > 10 | > 50
COc1ccc(CC(=O)Nc2ccsc2-n2nccn2)cc1 [N-(2-(2H-1,2,3-triazol-2-yl)thiophen-3-yl)-2-(4-methoxyphenyl)acetamide] | 0.1 to 10 | 0.1 to 10 | 0.1 to 10
